According to US20150175599A1, “FAAH Inhibitors” (Ironwood Pharmaceuticals, Inc., priority 2010, published 2015):

How the values were obtained:
FAAH = biological target: T1, FAAH (Homo sapiens, UniProt O00519); experiment: FAAH inhibition, human brain membrane homogenate assay; format: biochemical; conditions: human brain homogenate; average activity; read-out: Human brain Extract FAAH IC50
T1 construct: Reactions were initiated by adding 12.5 μg of brain microsome; tissue ABS, Inc; host or cells: human brain cerebral cortex, membrane/microsome fraction pooled from 3 donors
T1 sequence (O00519 1-579): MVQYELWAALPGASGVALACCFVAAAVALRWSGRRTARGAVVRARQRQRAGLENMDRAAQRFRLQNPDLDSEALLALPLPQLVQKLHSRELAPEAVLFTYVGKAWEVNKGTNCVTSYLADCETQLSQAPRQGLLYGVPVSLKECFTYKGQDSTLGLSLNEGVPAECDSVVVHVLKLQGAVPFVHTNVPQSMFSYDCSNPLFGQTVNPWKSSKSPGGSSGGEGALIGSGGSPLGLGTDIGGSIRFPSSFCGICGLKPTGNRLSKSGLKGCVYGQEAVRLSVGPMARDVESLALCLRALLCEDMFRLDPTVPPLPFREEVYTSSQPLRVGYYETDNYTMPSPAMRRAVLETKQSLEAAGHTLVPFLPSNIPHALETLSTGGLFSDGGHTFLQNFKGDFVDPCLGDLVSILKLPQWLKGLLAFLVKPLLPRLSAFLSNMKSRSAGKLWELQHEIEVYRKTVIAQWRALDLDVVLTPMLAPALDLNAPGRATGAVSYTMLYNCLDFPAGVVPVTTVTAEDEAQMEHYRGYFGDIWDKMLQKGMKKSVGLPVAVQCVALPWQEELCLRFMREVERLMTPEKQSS

hERG channel = biological target: T2, hERG channel (Homo sapiens, UniProt Q12809); experiment: hERG channel inhibition, automated patch clamp (IonWorks HT, hERG-CHO); format: cell-based; conditions: CHO cells expressing hERG, 600 s incubation; for inhibition at 600 s, 1 µM: 1 μM compound, read-out: hERG Channel Inhibition % (at 1 μM), vehicle-subtracted values; for inhibition at 600 s, 10 µM: 10 μM compound, read-out: hERG Channel Inhibition % (at 10 μM), vehicle-subtracted values
T2 construct: expressed in transfected cells; host or cells: CHO (hERG-CHO), under Geneticin selection
Description: Human ether-a-gogo-related (hERG) ion channel encodes the inward rectifying voltage gated potassium channel in the heart and has a major role during the repolarization of the cardiac action potential. It is well established that blockade of this ion channel can lead to potentially lethal arrhythmias. hERG pre-clinical safety data is often used by regulatory agencies in elucidate the toxicity profile of certain compositions. The disclosed compounds of Table 1 were tested for their ability to inhibit hERG ion channels.
Media components include F12 Nutrient Mixture (Ham) with GlutaMAX™ (Invitrogen, Cat#31765), Fetal Bovine Serum, Certified (Invitrogen, Cat#16000-044—not heat activated), and Geneticin® Selective Antibiotic (Invitrogen, Cat#10131-027).
One vial of frozen cells, at 1.62×10^6 cells are thawed into a T150 flask (BD Falcon 355001) with 40 mL of pre-warmed complete media. Cells are cultured at 37° C., 5% CO2 for four hours prior to gently changing media. 99% of cells appear attached at this time point.
The flask is media changed at 24 hours post-thaw, the cells are imaged, media changed, and returned to the incubator. At this point, the cells appear healthy and about 25% confluent in the flask. Cells are typically passed 24-48 hours after thaw according to the following intervals and densities below. Cells are incubated at 30° C. for 48 hours prior to assay.
Using an automated patch clamp apparatus (IonWorks^HT), a three pulse protocol was applied by stepping from a holding potential of −80 mV to […] for 2 s, to activate hERG channels. The membrane voltage was then stepped back to −50 mV for 2 s to evoke a tail current prior to returning to the holding potential for 1 s. This sequence was repeated a further two times. This voltage protocol was applied prior to drug (Pre compound) and after 600 s in the presence of drug (Post compound).
The amplitude of the hERG tail current was calculated by measuring the difference between the maximum current on stepping to −50 mV of the third pulse (i.e. peak of the outward hERG tail current) and the current measured immediately prior to activation of any hERG current. This parameter was assessed before (pre tail current amplitude) and after 600 s incubation (post tail current amplitude) in drug. In order to assess the amount of block produced by test compounds, the data was first filtered using the IonWorks™ software to exclude any cells where the seal resistance was less than 50 MOhm. The remaining data was then exported to an excel compatible data file and only currents with tail currents greater than 250 pA were analyzed. The post/pre tail current amplitude ratio for the third pulse was calculated for each drug and control, and presented as percent inhibition.

T2 sequence (Q12809 whole entry): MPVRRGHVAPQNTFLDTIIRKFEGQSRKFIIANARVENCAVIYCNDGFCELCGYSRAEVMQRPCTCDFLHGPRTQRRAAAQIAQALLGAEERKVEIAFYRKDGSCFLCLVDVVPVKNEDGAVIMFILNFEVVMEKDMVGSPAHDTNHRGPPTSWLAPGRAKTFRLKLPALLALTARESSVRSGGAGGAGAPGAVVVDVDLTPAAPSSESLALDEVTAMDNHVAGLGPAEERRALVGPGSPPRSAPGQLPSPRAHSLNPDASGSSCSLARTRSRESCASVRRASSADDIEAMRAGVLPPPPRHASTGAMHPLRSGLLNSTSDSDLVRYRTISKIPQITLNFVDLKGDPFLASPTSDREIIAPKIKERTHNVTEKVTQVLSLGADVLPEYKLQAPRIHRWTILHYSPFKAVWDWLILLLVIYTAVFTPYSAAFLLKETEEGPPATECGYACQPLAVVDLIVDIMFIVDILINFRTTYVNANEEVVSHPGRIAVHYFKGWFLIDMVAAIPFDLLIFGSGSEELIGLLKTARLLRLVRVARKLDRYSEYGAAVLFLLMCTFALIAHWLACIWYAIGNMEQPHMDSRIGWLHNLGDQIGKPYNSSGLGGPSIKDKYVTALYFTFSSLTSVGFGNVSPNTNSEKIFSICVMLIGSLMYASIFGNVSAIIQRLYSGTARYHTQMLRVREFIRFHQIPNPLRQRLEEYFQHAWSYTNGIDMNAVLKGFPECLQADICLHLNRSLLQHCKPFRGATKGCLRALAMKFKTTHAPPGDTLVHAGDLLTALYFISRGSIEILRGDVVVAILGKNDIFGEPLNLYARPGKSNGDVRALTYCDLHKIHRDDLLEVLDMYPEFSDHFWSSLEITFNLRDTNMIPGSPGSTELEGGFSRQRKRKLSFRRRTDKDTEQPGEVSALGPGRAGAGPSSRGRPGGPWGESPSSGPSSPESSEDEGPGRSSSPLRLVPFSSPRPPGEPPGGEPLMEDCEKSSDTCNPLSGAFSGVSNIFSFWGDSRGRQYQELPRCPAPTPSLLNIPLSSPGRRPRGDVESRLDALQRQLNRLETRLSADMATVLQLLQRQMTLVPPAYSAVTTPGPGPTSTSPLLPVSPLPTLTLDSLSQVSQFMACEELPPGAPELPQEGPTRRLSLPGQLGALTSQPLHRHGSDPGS

For `COc1cc(NC(=O)C(=O)c2c(C)n(Cc3ncc(Cl)cc3F)c3ccc(C)cc23)ccn1` [Compound 33, 2-(1-((5-chloro-3-fluoropyridin-2-yl)methyl)-2,5-dimethyl-1H-indol-3-yl)-N-(2-methoxypyridin-4-yl)-2-oxoacetamide], the IC50 (FAAH) was less than 100 nM, the inhibition at 600 s, 1 µM (hERG channel) was less than 25% and the inhibition at 600 s, 10 µM (hERG channel) was less than 25%.

Work on `COc1cnc2c(c1)c(C(=O)C(=O)Nc1ccnc(OC)c1)c(C)n2Cc1ncc(Cl)cc1F` [Compound 34, 2-(1-((5-chloro-3-fluoropyridin-2-yl)methyl)-5-methoxy-2-methyl-1H-pyrrolo[2,3-b]pyridin-3-yl)-N-(2-methoxypyridin-4-yl)-2-oxoacetamide] yielded an IC50 (FAAH) of less than 100 nM, an inhibition at 600 s, 1 µM (hERG channel) of less than 25% and an inhibition at 600 s, 10 µM (hERG channel) of less than 25%.

`COc1cc(NC(=O)C(=O)c2c(C)n(Cc3ccc(Cl)cc3)c3ccc(OC)nc23)ccn1` [Compound 36, 2-(1-(4-chlorobenzyl)-5-methoxy-2-methyl-1H-pyrrolo[3,2-b]pyridin-3-yl)-N-(2-methoxypyridin-4-yl)-2-oxoacetamide] showed an IC50 (FAAH) of less than 100 nM, an inhibition at 600 s, 1 µM (hERG channel) of less than 25% and an inhibition at 600 s, 10 µM (hERG channel) of less than 25%.

`COc1cc(NC(=O)C(=O)c2c(C)n(Cc3ccc(Cl)cc3)c3ccncc23)ccn1` [Compound 37, 2-(1-(4-chlorobenzyl)-2-methyl-1H-pyrrolo[3,2-c]pyridin-3-yl)-N-(2-methoxypyridin-4-yl)-2-oxoacetamide] showed an IC50 (FAAH) of less than 100 nM, an inhibition at 600 s, 1 µM (hERG channel) of 25 to 50% and an inhibition at 600 s, 10 µM (hERG channel) of 50 to 75%.

For `COc1cnc2c(c1)c(C(=O)C(=O)Nc1ccnc(OC)c1)c(C)n2Cc1ccc(Cl)cc1` [Compound 38, 2-(1-(4-chlorobenzyl)-5-methoxy-2-methyl-1H-pyrrolo[2,3-b]pyridin-3-yl)-N-(2-methoxypyridin-4-yl)-2-oxoacetamide], the IC50 (FAAH) was less than 100 nM, the inhibition at 600 s, 1 µM (hERG channel) was less than 25% and the inhibition at 600 s, 10 µM (hERG channel) was 25 to 50%.

`COc1ccc(Cn2c(C)c(C(=O)C(=O)Nc3ccnc(OC)c3)c3cc(OC)cnc32)nc1` [Compound 40, 2-(5-methoxy-1-((5-methoxypyridin-2-yl)methyl)-2-methyl-1H-pyrrolo[2,3-b]pyridin-3-yl)-N-(2-methoxypyridin-4-yl)-2-oxoacetamide] was tested, and the IC50 (FAAH) was less than 100 nM, the inhibition at 600 s, 1 µM (hERG channel) was less than 25% and the inhibition at 600 s, 10 µM (hERG channel) was less than 25%.

In the case of `COc1cnc2c(c1)c(C(=O)C(=O)Nc1ccnc(OC)c1)c(C)n2Cc1ccc(Cl)cn1` [Compound 41, 2-(1-((5-chloropyridin-2-yl)methyl)-5-methoxy-2-methyl-1H-pyrrolo[2,3-b]pyridin-3-yl)-N-(2-methoxypyridin-4-yl)-2-oxoacetamide], the IC50 (FAAH) is reported as less than 100 nM, the inhibition at 600 s, 1 µM (hERG channel) is reported as less than 25% and the inhibition at 600 s, 10 µM (hERG channel) is reported as 25 to 50%.

`COc1cnc2c(c1)c(C(=O)C(=O)Nc1ccnc(OC)c1)c(C)n2Cc1ccc(Cl)cc1Cl` [Compound 42, 2-(1-(2,4-dichlorobenzyl)-5-methoxy-2-methyl-1H-pyrrolo[2,3-b]pyridin-3-yl)-N-(2-methoxypyridin-4-yl)-2-oxoacetamide] gave an IC50 (FAAH) of less than 100 nM, an inhibition at 600 s, 1 µM (hERG channel) of less than 25% and an inhibition at 600 s, 10 µM (hERG channel) of 50 to 75%.

`COc1ccc(Cn2c(C)c(C(=O)C(=O)Nc3ccnc(OC)c3)c3cc(OC)ccc32)nc1` [Compound 43, 2-(5-methoxy-1-((5-methoxypyridin-2-yl)methyl)-2-methyl-1H-indol-3-yl)-N-(2-methoxypyridin-4-yl)-2-oxoacetamide] gave an IC50 (FAAH) of 100 to 1000 nM, an inhibition at 600 s, 1 µM (hERG channel) of less than 25% and an inhibition at 600 s, 10 µM (hERG channel) of less than 25%.

For `COc1cc(NC(=O)C(=O)c2c(C)n(Cc3ccc(Cl)cc3)c3cc(OC)c(OC)cc23)ccn1` [Compound 44, 2-(1-(4-chlorobenzyl)-5,6-dimethoxy-2-methyl-1H-indol-3-yl)-N-(2-methoxypyridin-4-yl)-2-oxoacetamide], the IC50 (FAAH) was less than 100 nM, the inhibition at 600 s, 1 µM (hERG channel) was less than 25% and the inhibition at 600 s, 10 µM (hERG channel) was less than 25%.

Compound `COc1cc(NC(=O)C(=O)c2c(C)n(Cc3ccc(Cl)cc3)c3cccc(OC)c23)ccn1` [Compound 45, 2-(1-(4-chlorobenzyl)-4-methoxy-2-methyl-1H-indol-3-yl)-N-(2-methoxypyridin-4-yl)-2-oxoacetamide] has an IC50 (FAAH) of less than 100 nM, an inhibition at 600 s, 1 µM (hERG channel) of less than 25% and an inhibition at 600 s, 10 µM (hERG channel) of less than 25%.

`COc1ccc2c(c1)c(C(=O)C(=O)Nc1ccnc(OC)n1)c(C)n2Cc1ccc(Cl)cc1` [Compound 46, 2-(1-(4-chlorobenzyl)-5-methoxy-2-methyl-1H-indol-3-yl)-N-(2-methoxypyrimidin-4-yl)-2-oxoacetamide] gave an IC50 (FAAH) of less than 100 nM, an inhibition at 600 s, 1 µM (hERG channel) of less than 25% and an inhibition at 600 s, 10 µM (hERG channel) of less than 25%.

`COc1ccc2c(c1)c(C(=O)C(=O)Nc1cc(Cl)nc(OC)c1)c(C)n2Cc1ccc(Cl)cc1` [Compound 47, N-(2-chloro-6-methoxypyridin-4-yl)-2-(1-(4-chlorobenzyl)-5-methoxy-2-methyl-1H-indol-3-yl)-2-oxoacetamide] gave an IC50 (FAAH) of less than 100 nM, an inhibition at 600 s, 1 µM (hERG channel) of less than 25% and an inhibition at 600 s, 10 µM (hERG channel) of less than 25%.

`COc1ccc2c(C(=O)C(=O)Nc3ccnc(OC)c3)c(C)n(Cc3ccc(Cl)cc3)c2c1` [Compound 48, 2-(1-(4-chlorobenzyl)-6-methoxy-2-methyl-1H-indol-3-yl)-N-(2-methoxypyridin-4-yl)-2-oxoacetamide] showed an IC50 (FAAH) of less than 100 nM, an inhibition at 600 s, 1 µM (hERG channel) of less than 25% and an inhibition at 600 s, 10 µM (hERG channel) of less than 25%.

`COc1cc(NC(=O)C(=O)c2c(C)n(Cc3ccc(Cl)cc3)c3c(OC)cccc23)ccn1` [Compound 51, 2-(1-(4-chlorobenzyl)-7-methoxy-2-methyl-1H-indol-3-yl)-N-(2-methoxypyridin-4-yl)-2-oxoacetamide] was tested, and the IC50 (FAAH) was 100 to 1000 nM, the inhibition at 600 s, 1 µM (hERG channel) was less than 25% and the inhibition at 600 s, 10 µM (hERG channel) was less than 25%.

Compound `COc1ccc2c(c1)c(C(=O)C(=O)Nc1ccnc(OC)c1Cl)c(C)n2Cc1ccc(Cl)cc1` [Compound 52, N-(3-chloro-2-methoxypyridin-4-yl)-2-(1-(4-chlorobenzyl)-5-methoxy-2-methyl-1H-indol-3-yl)-2-oxoacetamide] has an IC50 (FAAH) greater than 10000 nM, an inhibition at 600 s, 1 µM (hERG channel) of less than 25% and an inhibition at 600 s, 10 µM (hERG channel) of less than 25%.

Compound `COc1ccc2c(c1)c(C(=O)C(=O)Nc1ccnc(OC)c1F)c(C)n2Cc1ccc(Cl)cc1` [Compound 53, 2-(1-(4-chlorobenzyl)-5-methoxy-2-methyl-1H-indol-3-yl)-N-(3-fluoro-2-methoxypyridin-4-yl)-2-oxoacetamide] has an IC50 (FAAH) of 100 to 1000 nM, an inhibition at 600 s, 1 µM (hERG channel) of less than 25% and an inhibition at 600 s, 10 µM (hERG channel) of less than 25%.

`COc1ccc2c(c1)c(C(=O)C(=O)Nc1cc(OC)ncc1F)c(C)n2Cc1ccc(Cl)cc1` [Compound 54, 2-(1-(4-chlorobenzyl)-5-methoxy-2-methyl-1H-indol-3-yl)-N-(5-fluoro-2-methoxypyridin-4-yl)-2-oxoacetamide] showed an IC50 (FAAH) of less than 100 nM, an inhibition at 600 s, 1 µM (hERG channel) of less than 25% and an inhibition at 600 s, 10 µM (hERG channel) of less than 25%.

Compound `COc1cc(NC(=O)C(=O)c2c(C)n(Cc3ccc(Cl)cc3)c3cc(Cl)c(OC)cc23)ccn1` [Compound 55, 2-(6-chloro-1-(4-chlorobenzyl)-5-methoxy-2-methyl-1H-indol-3-yl)-N-(2-methoxypyridin-4-yl)-2-oxoacetamide] has an IC50 (FAAH) of less than 100 nM, an inhibition at 600 s, 1 µM (hERG channel) of less than 25% and an inhibition at 600 s, 10 µM (hERG channel) of less than 25%.
